Laboratory results published in patent US20220175638A1, “CELL ACTIVATOR” (Shiseido Company, Ltd., priority 2019, published 2022).

What was measured:
Human skin fibroblasts [1] = test: Experiment 2: cellular activity at different C-phycocyanin concentrations and UV doses; type: cell-based; conditions: UV 0, 10, 25, 50, 75 and 100 mJ/cm^2, FIG. 3
Protocol: (§1) 1. Human skin fibroblasts (purchased from Kurabo) and human skin keratinocytes (purchased from Kurabo or PromoCell) were used. A cell suspension (1 mL) stored with liquid nitrogen was placed in a hot water bath (37° C.) and thawed until small ice pellets remained, and then diluted with 9 mL of warm medium. 2. The diluted suspension was gently mixed and transferred to a T75 flask, and incubated overnight at 37° C. 3. On the following day, the medium was exchanged with 10 mL of fresh medium. 4. The medium was periodically exchanged (once every 2 days for fibroblasts, or once every 2 to 3 days for keratinocytes), while continuing growth of the cells. During this time, a microscope was used to observe the cells and to confirm that the cells had proliferated with the proper form. 5. Once the cells reached approximately 80% confluence, they were subcultured. Subculturing of the cells was carried out by rinsing once in 10 mL of warm PBS, after which 5 mL of warm trypsin was added to the T75 flask to cover the bottom of the flask with the trypsin solution, and the mixture was suctioned after standing for 1 minute at room temperature. 6. The flask was set in an oven at 37° C. for 2 minutes (maximum) for fibroblasts and 7 minutes (maximum) for keratinocytes. A microscope was used to observe the cells, confirming that they were small and elliptical. 7. […]

Human skin fibroblasts [2] = test: Experiment 3: restoration of UV irradiation-reduced cellular activity; type: cell-based; conditions: pre-irradiation 400 mJ/cm^2 without substance, then UV 0-200 mJ/cm^2 through 0.4% or 2% C-phycocyanin; FIG. 5
Protocol: as §1

Substance: C-phycocyanin
- cellular activity (relative fluorescence intensity) (Human skin fibroblasts [1]; 0.4% C-phycocyanin): reduction in cellular activity was inhibited even under UV irradiation
- cellular activity (relative fluorescence intensity) (Human skin fibroblasts [1]; 2% C-phycocyanin): accelerated cellular activity even above the level with no UV irradiation
- cellular activity of cells with previously lowered activity (Human skin fibroblasts [2]): cellular activity was restored
